Reference: patent US5412125A, “Dipeptidic amides derived from glycyl-serine as surfactants or hydrating agents and cosmetic, pharmaceutical or alimentary compositions containing the same” (L'Oreal, priority 1991, dated 1995)
Where a SMILES comes first, the peptide text is derived from it. The star is where a group is joined. Lauroyl = CCCCCCCCCCCC(=O)*

Experiment: Foaming power study (brush-developed foam in graduated cylinder)
Type: physicochemical
Conditions: 5% aqueous solution (weight/volume), 5 ml with 6 mg natural feminine sebum; after 180 sec stirring
Experimental: The test consists in developing the foam using a brush made of natural hog bristles (length=[…]) displaced in a plexiglass graduated cylindrical container (inside diameter=35 mm). This container is driven in a uniform circular motion which is the reverse of that described by the brush. This permits a good distribution of the foam in the graduated container despite the small amounts developed. (brush speed=100 rpm, container speed=10 rpm). The procedure is carried out using 5 ml of each solution studied to which has been added 6 mg of natural feminine sebum. The foam heights are recorded after one, two and three minutes of stirring.

- Foam Height (cm) at the end of a time of 180 sec: 20 cm
Structure (SMILES): CCCCCCCCCCCC(=O)NCC(=O)NCC(=O)[O-].[Na+] [compound A, sodium salt of N-dodecanoyl-glycyl-glycine] (Lauroyl-Gly-Gly-OH)
